Results as given in ChEMBL document CHEMBL5727880, “Amide compounds as kinase inhibitors, compositions and methods of treatment” (2020).
pIC50: −log10 of the molar value.

Molecular target: Rho-associated protein kinase 2 (Homo sapiens, UniProt O75116)
Assay: Kinase Inhibition Assay: The following assay protocol is for measuring the phosphorylation of a peptide substrate (FAM-[…]-OH wherein FAM is carboxyfluorescein). The peptide is >98% purity by Capillary Electrophoresis. The peptide is phosphorylated by the protein kinase ROCK1 or ROCK2. The ROCK1 or ROCK2 enzyme, substrate, and cofactors (ATP and Mg2+) are combined in a well of a microtiter plate and incubated for 3 hours at 25° C. in the presence or absence of an inhibitor compound. At the end of the incubation, the reaction is quenched by the addition of an EDTA-containing buffer. The substrate and product are separated and quantified electrophoretically using the microfluidic-based LABCHIP® 3000 Drug Discovery System from Caliper Life Sciences (Hopkinton, Mass.).The components of the assay mixture are:100 mM HEPES, pH 7.50.1% BSA0.01% Triton X-1001 mM DTT10 mM MgCl210 μM Sodium Orthovanadate10 LM Beta-Glycerophosphate5 μM ATP (for ROCK1) or 7 μM ATP (for ROCK2)1% DMSO (from compound)1.25 μM FAM-[…]-OH3 nM ROCK1 or 2.5 nM ROCK2 enzymeSubstrate and product peptides present in each sample are separated electrophoretically using the LABCHIP® 3000 capillary electrophoresis instrument. As substrate and product peptides are separated two peaks of fluorescence are observed. […]

Chain of Rho-associated protein kinase 2 (O75116 whole entry): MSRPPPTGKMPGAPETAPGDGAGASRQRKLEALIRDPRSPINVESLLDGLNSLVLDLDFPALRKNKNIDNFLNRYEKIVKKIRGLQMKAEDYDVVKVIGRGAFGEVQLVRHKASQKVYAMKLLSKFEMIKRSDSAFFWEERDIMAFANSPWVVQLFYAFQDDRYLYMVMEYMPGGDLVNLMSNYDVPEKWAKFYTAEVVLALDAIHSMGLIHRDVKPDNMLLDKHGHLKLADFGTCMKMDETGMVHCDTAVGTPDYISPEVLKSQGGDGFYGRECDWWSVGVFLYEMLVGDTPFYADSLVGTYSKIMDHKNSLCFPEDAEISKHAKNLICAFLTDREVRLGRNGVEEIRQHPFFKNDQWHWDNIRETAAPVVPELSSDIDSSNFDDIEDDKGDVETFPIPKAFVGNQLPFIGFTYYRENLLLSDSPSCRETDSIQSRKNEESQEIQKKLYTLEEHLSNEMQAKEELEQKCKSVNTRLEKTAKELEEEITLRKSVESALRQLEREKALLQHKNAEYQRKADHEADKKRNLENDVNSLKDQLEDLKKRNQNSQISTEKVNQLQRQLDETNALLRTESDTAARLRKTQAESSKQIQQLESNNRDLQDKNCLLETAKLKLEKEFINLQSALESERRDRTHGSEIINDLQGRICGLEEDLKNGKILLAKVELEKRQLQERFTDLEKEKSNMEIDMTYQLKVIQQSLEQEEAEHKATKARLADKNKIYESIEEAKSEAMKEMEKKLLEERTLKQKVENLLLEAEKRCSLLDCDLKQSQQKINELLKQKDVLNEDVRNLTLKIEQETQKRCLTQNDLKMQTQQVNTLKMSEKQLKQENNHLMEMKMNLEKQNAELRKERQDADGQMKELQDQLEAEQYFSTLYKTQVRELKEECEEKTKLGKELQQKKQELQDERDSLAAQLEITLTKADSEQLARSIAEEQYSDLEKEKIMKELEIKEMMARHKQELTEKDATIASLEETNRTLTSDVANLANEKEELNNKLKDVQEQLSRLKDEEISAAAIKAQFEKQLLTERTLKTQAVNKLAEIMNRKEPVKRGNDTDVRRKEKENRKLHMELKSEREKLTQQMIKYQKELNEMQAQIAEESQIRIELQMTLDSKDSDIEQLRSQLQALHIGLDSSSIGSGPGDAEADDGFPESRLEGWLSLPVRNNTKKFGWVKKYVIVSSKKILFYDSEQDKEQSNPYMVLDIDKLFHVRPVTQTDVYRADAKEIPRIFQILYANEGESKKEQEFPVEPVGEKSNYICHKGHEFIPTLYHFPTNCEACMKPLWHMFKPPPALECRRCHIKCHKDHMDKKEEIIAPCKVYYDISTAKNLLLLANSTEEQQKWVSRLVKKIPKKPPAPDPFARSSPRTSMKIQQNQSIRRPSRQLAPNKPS

pIC50: 8.92
Compound: C[C@@H](NC(=O)c1ccc(-c2ccncc2)cc1)c1cccc(C(=O)NC2CCCC2)c1
